This is an account of results in US6306869A, “N-oxides” (Byk Gulden Lomberg Chemische Febrik GmbH, priority 1998, dated 2001).

The structures appear in SMILES notation.

One assay has as its target PDE4 (cAMP-specific). As to the kind of experiment: Inhibition of PDE isoenzymes: PDE4. Type of assay: biochemical. The conditions noted are these: cytosol of human polymorphonuclear leukocytes (PMNL), cAMP as substrate, motapizone 1 μM present.
In a further assay the target is T1, PDE3 (cGMP-inhibited) (Homo sapiens, UniProt Q14432).
T1 construct: were investigated in homogenates of human blood platelets; from tissue; host or cells: homogenates of human blood platelets
Briefly: Inhibition of PDE isoenzymes: PDE3. The format is biochemical. The conditions noted are these: homogenates of human blood platelets, cAMP as substrate; read-out: PDE3 [-loglC50,mol/l] (converted). As for the experimental part:
The PDE activity was determined according to Thompson et al. (1) with some modifications (2). The test samples contained 40 mM tris HCl (pH 7.4), 5 mM MgCl2, 0.5 μM cAMP or cGMP, [^3 H] cAMP or [3H]CGMP (about 50,000 cpm/sample), the PDE isoenzyme-specific additions described in greater detail below, the indicated concentrations of inhibitor and an aliquot of the enzyme solution in a total sample volume of 200 μl. […] After preincubation at 37° C. for 5 minutes, the reaction was started by addition of the substrate (cAMP or cGMP). The samples were incubated at 37° C. for a further 15 min. The reaction was terminated by addition of 50 μl of 0.2 N HCl. After cooling on ice for 10 minutes and addition of 25 μg of 5'-nucleotidase (snake venom from Crotalus atrox), the mixture was again incubated at 37° C. for 10 min and the samples were then applied to QAE Sephadex A-25 columns. The columns were eluted with 2 ml of 30 mM ammonium formate (pH 6.0). The radioactivity of the eluate was measured and corrected by the corresponding blank values. The proportion of hydrolysed nucleotide in no case exceeded 20% of the original substrate concentration.
PDE3 (cGMP-inhibited) and PDE5 (cGMP-specific) were investigated in homogenates of human blood platelets [Schudt et al. (4)] using cAMP or cGMP as a substrate.
The IC50 values were determined from the concentration-inhibition curves by nonlinear regression using the GraphPad InPlot™ program (GraphPad Software Inc., […], USA).

T1 sequence (Q14432 whole entry): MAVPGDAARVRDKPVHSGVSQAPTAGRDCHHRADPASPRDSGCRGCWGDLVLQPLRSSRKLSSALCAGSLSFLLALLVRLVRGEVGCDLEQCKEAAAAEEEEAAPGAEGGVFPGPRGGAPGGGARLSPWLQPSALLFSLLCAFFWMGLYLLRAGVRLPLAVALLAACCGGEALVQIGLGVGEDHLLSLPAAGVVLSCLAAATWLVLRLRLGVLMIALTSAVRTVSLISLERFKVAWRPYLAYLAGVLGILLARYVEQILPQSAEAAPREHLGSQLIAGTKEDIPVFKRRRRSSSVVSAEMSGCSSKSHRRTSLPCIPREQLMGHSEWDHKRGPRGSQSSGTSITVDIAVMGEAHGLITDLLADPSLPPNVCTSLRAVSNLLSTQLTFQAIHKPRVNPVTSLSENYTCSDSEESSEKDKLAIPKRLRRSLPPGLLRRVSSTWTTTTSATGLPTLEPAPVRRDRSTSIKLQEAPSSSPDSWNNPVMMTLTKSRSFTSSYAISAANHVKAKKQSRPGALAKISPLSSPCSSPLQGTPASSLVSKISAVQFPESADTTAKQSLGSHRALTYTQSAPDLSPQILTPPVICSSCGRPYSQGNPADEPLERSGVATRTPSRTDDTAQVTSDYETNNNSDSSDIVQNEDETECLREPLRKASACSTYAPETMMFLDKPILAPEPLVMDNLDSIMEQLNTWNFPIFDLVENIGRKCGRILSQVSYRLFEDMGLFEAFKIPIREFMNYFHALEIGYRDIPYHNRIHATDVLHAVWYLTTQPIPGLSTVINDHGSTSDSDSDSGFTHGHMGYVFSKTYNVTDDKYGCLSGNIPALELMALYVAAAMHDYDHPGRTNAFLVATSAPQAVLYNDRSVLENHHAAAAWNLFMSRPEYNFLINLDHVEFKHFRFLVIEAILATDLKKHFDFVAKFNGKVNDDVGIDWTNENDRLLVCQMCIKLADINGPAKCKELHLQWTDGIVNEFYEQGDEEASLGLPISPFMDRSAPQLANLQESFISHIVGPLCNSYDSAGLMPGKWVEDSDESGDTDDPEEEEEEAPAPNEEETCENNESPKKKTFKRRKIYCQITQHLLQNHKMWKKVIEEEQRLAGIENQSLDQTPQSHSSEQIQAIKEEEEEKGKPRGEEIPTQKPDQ

Consider `CCCCN(CCCC)C(=O)c1ccc(C2=N[C@@H]3CC[N+](C)([O-])C[C@@H]3c3cc(OCC)c(OC)cc32)cc1` (relative stereo) [Compound 2, cis-9-ethoxy-2-methyl-8-methoxy-6-(4-dibutylaminocarbonylphenyl)-1 ,2,3,4,4a,10b-hexahydrobenzo[c][1,6]naphthyridine N-2-oxide], for which the “PDE4 [-loglC50,mol/l]” value at PDE4 (cAMP-specific) is 7.98. In addition, at PDE3 (cGMP-inhibited), the IC50 was 1070 nM.
As to `CCCCN(CCCC)C(=O)c1ccc(C2=N[C@@H]3CC[N+](C)([O-])C[C@@H]3c3cc(OCCC)c(OC)cc32)cc1` (relative stereo) [Compound 3, cis-8-methoxy-2-methyl-9-propoxy-6-(4-dibutylaminocarbonylphenyl)-1 ,2,3,4,4a,10b-hexahydrobenzo[c][1,6]naphthyridine N-2-oxide], the “PDE4 [-loglC50,mol/l]” value on PDE4 (cAMP-specific) was 7.53. The IC50 at PDE3 (cGMP-inhibited) is 2090 nM.
For the molecule `CCOc1cc2c(cc1OC)C(c1ccc(C(=O)N(C(C)C)C(C)C)cc1)=N[C@@H]1CC[N+](C)([O-])C[C@H]21` (single isomer, unassigned) [Compound 1, cis-9-ethoxy-8-methoxy-2-methyl-6-(4-diisopropylaminocarbonylphenyl)-1,2,3,4,4a,10b-hexahydrobenzo[c][1,6]naphthyridine N-2-oxide], the “PDE4 [-loglC50,mol/l]” value at PDE4 (cAMP-specific) is 7.20. In addition, on PDE3 (cGMP-inhibited), the IC50 was 776 nM.
